Key:
CCR9 [1] = target: T1, CCR9 (Homo sapiens (Human), UniProt P51686); test: FLIPR calcium flux assay using MOLT4 cells, TECK stimulation; type: cell-based; details: MOLT4 cells (human T-cell line)
Method: Biological Activity: FLIPR Assay Using MOLT4 Cells
A calcium flux assay was used to determine the ability of the compounds to interfere with the binding between CCR9 and its chemokine ligand (TECK) in MOLT4 cells (a human T-cell line). MOLT4 cells were seeded (100,000 cells/well) in corning cell culture plates (Cat #3603) in assay buffer (1×HBSS, 20 mM HEPES) containing 2.5 mM Probenecid. The plate was centrifuged at 1200 rpm for 3 minutes and incubated at 37° C./5% CO2 for 2 hours. A 0.3× Fluo-4 NW calcium dye was prepared in assay buffer containing 5 mM Probenecid and stored in the dark. Each well was loaded with 25 μl of 0.3× Fluo-4 NW calcium dye and incubated at 37° C./5% CO2 for 60 minutes and then at room temperature for 30 minutes. A half-log serially diluted concentration response curve was prepared at a 4× concentration for each (10 μM-0.1 nM final assay concentration) and 25 μL of the compound then transferred to the cells (100 μL final volume) for 60 minutes prior to stimulation (30 minutes at 37° C./5% CO2 and 30 minutes at room temperature). […] The increased in intracellular calcium levels was measured with the FLIPR instrument. The potency of the compound as CCR9 antagonist was calculated as an IC50 using GraphPad Prism software (variable slope four parameter). The Ki of the compound was determined from the IC50 values using the following equation. IC50/1+(Agonist (TECK) conc. used in assay/EC50 of agonist (TECK) generated on day of experiment) Ki calculation: […]

CCR9 [2] = target: T1, CCR9; test: FLIPR calcium flux assay using hCCR9 over expressed cells (Chem1-hCCR9), TECK stimulation; type: cell-based; details: Chem1-hCCR9 overexpressing cells
Method: Biological Activity: FLIPR Assay Using hCCR9 Over Expressed Cells
A calcium flux assay was used to determine the ability of the compounds to interfere with the binding between CCR9 and its chemokine ligand (TECK) in Chem1-hCCR9 overexpressing cells. hCCR9 overexpressing cells were seeded (25,000 cells/well) into black Poly-D-Lysine coated clear bottom 96-well plates (BD Biosciences, Cat #356640) and incubated overnight at 37° C./5% CO2 in a humidified incubator. Media was aspirated and cells washed twice with 100 μL assay buffer (1×HBSS, 20 mM HEPES) containing 2.5 mM Probenecid. A 0.3× Fluo-4 NW calcium dye was prepared in assay buffer containing 5 mM Probenecid and stored in the dark. Each well was loaded with 100 μL of 0.3× Fluo-4 NW calcium dye and incubated at 37° C./5% CO2 for 60 minutes and then at room temperature for 30 minutes. A half-log serially diluted concentration response curve was prepared at a 3× final assay concentration for each compound (10 μM-0.1 nM final assay concentration) and 50 μL of the compound then transferred to the cells (150 μL final volume) for 60 minutes prior to stimulation (30 minutes at 37° C./5% CO2 and 30 minutes at room temperature). TECK was diluted to 4× its EC80 in assay buffer (containing 0.1% [w/v] bovine serum albumin [BSA]) and 50 μL dispensed through the fluorometric imaging plate reader (FLIPR) instrument to stimulate the cells (200 μL final volume). The increase in intracellular calcium levels was measured with the FLIPR instrument. The potency of the compound as a CCR9 antagonist was calculated as an IC50 using GraphPad Prism software (variable slope four parameter). The Ki of the compound was determined from the IC50 values using the following equation. IC50/1+(Agonist (TECK) conc. used in assay/EC50 of agonist (TECK) generated on day of experiment) Ki calculation: […]

T1 sequence (P51686 whole entry): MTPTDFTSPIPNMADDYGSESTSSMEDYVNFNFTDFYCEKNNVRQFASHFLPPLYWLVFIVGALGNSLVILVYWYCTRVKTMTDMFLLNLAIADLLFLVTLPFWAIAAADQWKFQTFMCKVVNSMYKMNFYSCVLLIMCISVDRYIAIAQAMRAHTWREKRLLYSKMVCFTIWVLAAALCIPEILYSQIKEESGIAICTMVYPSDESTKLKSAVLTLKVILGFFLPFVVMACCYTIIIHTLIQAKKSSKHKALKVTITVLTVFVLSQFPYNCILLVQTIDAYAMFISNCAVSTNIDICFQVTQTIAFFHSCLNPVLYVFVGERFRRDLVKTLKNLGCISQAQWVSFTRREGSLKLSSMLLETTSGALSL

Structure (SMILES)	Ki (CCR9 [1]) [nM]	Ki (CCR9 [2]) [nM]
CC(C)(C)c1ccc(S(=O)(=O)Nc2cccc3c2C(=O)N(c2cccnc2)C3=O)cc1 [Compound 1, 4-tert-Butylphenylsulfonic acid (1,3-dioxo-2-(pyridin-3-yl)-2,3-dihydro-1H-isoindol-4-yl)-amide]	479	1240
O=C1c2cccc(NS(=O)(=O)c3ccc(C(F)(F)F)cc3)c2C(=O)N1c1cccnc1 [Compound 6]		5630
CC(C)(C)c1ccc(S(=O)(=O)Nc2ccc(Cl)c3c2C(=O)N(c2cccnc2)C3=O)cc1 [Compound 43, 4-(tert-butyl)-N-(7-chloro-1,3-dioxo-2-(pyridin-3-yl)isoindolin-4-yl)benzenesulfonamide]	25	42
O=C1c2c(Cl)ccc(NS(=O)(=O)c3ccc(OC(F)(F)F)cc3)c2C(=O)N1c1cccnc1 [Compound 45]	52	314
O=C1c2c(Cl)ccc(NS(=O)(=O)c3ccc(C(F)(F)F)cc3)c2C(=O)N1c1cccnc1 [Compound 47]	34	309
CC(C)(C)c1ccc(S(=O)(=O)Nc2ccc(Cl)c3c2C(=O)N(Cc2cccnc2)C3=O)cc1 [Compound 64, 4-(tert-butyl)-N-(7-chloro-1,3-dioxo-2-(pyridin-3-ylmethyl)isoindolin-4-yl)benzenesulfonamide]	22	27
O=C1c2c(Cl)ccc(NS(=O)(=O)c3ccc(C(F)(F)F)cc3)c2C(=O)N1Cc1cccnc1 [Compound 66]	115	269
COc1cncc(N2C(=O)c3c(Cl)ccc(NS(=O)(=O)c4ccc(C(C)(C)C)cc4)c3C2=O)c1 [Compound 90, 4-(tert-butyl)-N-(7-chloro-2-(5-methoxypyridin-3-yl)-1,3-dioxoisoindolin-4-yl)benzenesulfonamide]	22	174
CCOc1cncc(N2C(=O)c3c(Cl)ccc(NS(=O)(=O)c4ccc(C(C)(C)C)cc4)c3C2=O)c1 [Compound 103]	128	242
Cc1cncc(N2C(=O)c3c(Cl)ccc(NS(=O)(=O)c4ccc(C(C)(C)C)cc4)c3C2=O)c1 [Compound 104, 4-(tert-butyl)-N-(7-chloro-2-(5-methylpyridin-3-yl)-1,3-dioxoisoindolin-4-yl)benzenesulfonamide]	30	239
CC(C)(C)c1ccc(S(=O)(=O)Nc2ccc(Cl)c3c2C(=O)N(c2cccc(C#N)c2)C3=O)cc1 [Compound 120, 4-(tert-butyl)-N-(7-chloro-2-(3-cyanophenyl)-1,3-dioxoisoindolin-4-yl)benzenesulfonamide]	74	90
N#Cc1cccc(N2C(=O)c3c(Cl)ccc(NS(=O)(=O)c4ccc(C(F)(F)F)cc4)c3C2=O)c1 [Compound 121]	192	337
CC(C)(C)c1ccc(S(=O)(=O)Nc2ccc(Cl)c3c2C(=O)N(Cc2cccc(C#N)c2)C3=O)cc1 [Compound 126, 4-(tert-butyl)-N-(7-chloro-2-(3-cyanobenzyl)-1,3-dioxoisoindolin-4-yl)benzenesulfonamide]	158	343
N#Cc1cccc(CN2C(=O)c3c(Cl)ccc(NS(=O)(=O)c4ccc(C(F)(F)F)cc4)c3C2=O)c1 [Compound 128]	244	447
N#Cc1cccc(CN2C(=O)c3c(Cl)ccc(NS(=O)(=O)c4ccc(F)c(C(F)(F)F)c4)c3C2=O)c1 [Compound 133]	220	158
COc1cccc(N2C(=O)c3c(Cl)ccc(NS(=O)(=O)c4ccc(C(C)(C)C)cc4)c3C2=O)c1 [Compound 138]	83	138
Cn1ccc(N2C(=O)c3c(Cl)ccc(NS(=O)(=O)c4ccc(C(C)(C)C)cc4)c3C2=O)n1 [Compound 145]	129	73
CC(C)(C)c1ccc(S(=O)(=O)Nc2ccc(Cl)c3c2C(=O)N(c2cn[nH]c2)C3=O)cc1 [Compound 148, 4-(tert-butyl)-N-(7-chloro-1,3-dioxo-2-(1H-pyrazol-4-yl)isoindolin-4-yl)benzenesulfonamide]	36	94
O=C1c2c(Cl)ccc(NS(=O)(=O)c3ccc(C(F)(F)F)cc3)c2C(=O)N1c1cn[nH]c1 [Compound 149]	53	397
COC(=O)c1sccc1N1C(=O)c2c(Cl)ccc(NS(=O)(=O)c3ccc(C(C)(C)C)cc3)c2C1=O [Compound 155, methyl 3-(4-((4-(tert-butyl)phenyl)sulfonamido)-7-chloro-1,3-dioxoisoindolin-2-yl)thiophene-2-carboxylate]	44	135
Cc1ccc(NS(=O)(=O)c2ccc(C(C)(C)C)cc2)c2c1C(=O)N(Cc1cccnc1)C2=O [Compound 160]	456	776
Cn1cc(N2C(=O)c3c(Cl)ccc(NS(=O)(=O)c4ccc(C(C)(C)C)cc4)c3C2=O)c(C(=O)O)n1 [Compound 289]	104	

The remaining lines, values ahead:

Ki (CCR9 [1]) [nM]	Ki (CCR9 [2]) [nM]	Structure (SMILES)
16	179	CC(C)(C)c1ccc(S(=O)(=O)Nc2ccc(Cl)c3c2C(=O)N(c2ccc[n+]([O-])c2)C3=O)cc1 [Compound 44, 3-(4-(4-(tert-butyl)phenylsulfonamido)-7-chloro-1,3-dioxoisoindolin-2-yl)pyridine 1-oxide]
13	74	CC(C)(C)c1ccc(S(=O)(=O)Nc2ccc(Cl)c3c2C(=O)N(Cc2ccc[n+]([O-])c2)C3=O)cc1 [Compound 65, 3-((4-(4-(tert-butyl)phenylsulfonamido)-7-chloro-1,3-dioxoisoindolin-2-yl)methyl)pyridine 1-oxide]
19	98	CC(C)(C)c1ccc(S(=O)(=O)Nc2ccc(C#N)c3c2C(=O)N(Cc2cccnc2)C3=O)cc1 [Compound 82, 4-(tert-butyl)-N-(7-cyano-1,3-dioxo-2-(pyridin-3-ylmethyl)isoindolin-4-yl)benzenesulfonamide]
2	35	COc1ccncc1N1C(=O)c2c(Cl)ccc(NS(=O)(=O)c3ccc(C(C)(C)C)cc3)c2C1=O [Compound 119]
3	23	Cn1nccc1N1C(=O)c2c(Cl)ccc(NS(=O)(=O)c3ccc(C(C)(C)C)cc3)c2C1=O [Compound 144]
7	43	Cn1cnc(N2C(=O)c3c(Cl)ccc(NS(=O)(=O)c4ccc(C(C)(C)C)cc4)c3C2=O)c1 [Compound 153, 4-(tert-butyl)-N-(7-chloro-2-(1-methyl-1H-imidazol-4-yl)-1,3-dioxoisoindolin-4-yl)benzenesulfonamide]
3	12	Cc1ncccc1N1C(=O)c2c(Cl)ccc(NS(=O)(=O)c3ccc(C(C)(C)C)cc3)c2C1=O [Compound 175, 4-(tert-butyl)-N-(7-chloro-2-(2-methylpyridin-3-yl)-1,3-dioxoisoindolin-4-yl)benzenesulfonamide]
6	13	Cc1c(N2C(=O)c3c(Cl)ccc(NS(=O)(=O)c4ccc(C(C)(C)C)cc4)c3C2=O)ccc[n+]1[O-] [Compound 176, 3-(4-(4-(tert-butyl)phenylsulfonamido)-7-chloro-1,3-dioxoisoindolin-2-yl)-2-methylpyridine 1-oxide]
16	57	CC(C)(C)c1ccc(S(=O)(=O)Nc2ccc(Cl)c3c2C(=O)N(c2sccc2C#N)C3=O)cc1 [Compound 179]
19	58	Cc1ccc(N2C(=O)c3c(Cl)ccc(NS(=O)(=O)c4ccc(C(C)(C)C)cc4)c3C2=O)cn1 [Compound 182]
3	3	COc1ncccc1N1C(=O)c2c(Cl)ccc(NS(=O)(=O)c3ccc(C(C)(C)C)cc3)c2C1=O [Compound 183]
16	24	CC(C)(C)c1ccc(S(=O)(=O)Nc2ccc(Cl)c3c2C(=O)N(c2cnccn2)C3=O)cc1 [Compound 184]

From patent US9969687B2, “Compounds useful as CCR9 modulators” (Norgine B.V., priority 2013, dated 2018)
